Consider 13 molecules from the NIST ThermoML archive (doi:10.1021/acs.jced.8b00348).

Data set [1] can be described thus: refractive index (Na D-line) (dimensionless). The following applies: 293.15 K; 93.13 kPa; Liquid; Standard Abbe refractometry.
For data set [2] the following is noted: Liquid, Ebulliometric method (Recirculating still).
Data set [3] is described as follows: refractive index (Na D-line) (dimensionless); xn = mol fraction of the nth substance listed. The following applies: 293.15 K, 93.13 kPa, Liquid, Standard Abbe refractometry.

Numbers after ± are expanded uncertainties.

As for `Cc1ccccc1C` [1,2-dimethylbenzene], in data set [1], the refractive index was 1.5048 ± 0.0004. The “vapor or sublimation pressure” value in data set [2] (414.41 K) was 93.13 ± 0.96 kPa.
On to `Cc1ccccc1C` [1,2-dimethylbenzene] + COc1ccccc1, for which, in data set [3] (x1 = 1), the refractive index came to 1.5048 ± 0.0004.
Turning to `Cc1cccc(C)c1` [1,3-dimethylbenzene], the refractive index in data set [1] was 1.497 ± 0.0004. Besides, in data set [2] (409.13 K), the “vapor or sublimation pressure” value amounted to 93.13 ± 0.96 kPa.
Consider `Cc1cccc(C)c1` [1,3-dimethylbenzene] + COc1ccccc1, for which, in data set [3] (x1 = 1), the refractive index is 1.497 ± 0.0004.
With `Cc1ccc(C)cc1` [1,4-dimethylbenzene], in data set [1], the refractive index was 1.4956 ± 0.0004. Further, the “vapor or sublimation pressure” value in data set [2] (408.37 K) is on record as 93.13 ± 0.96 kPa.
On to `Cc1ccc(C)cc1` [1,4-dimethylbenzene] + COc1ccccc1, for which the refractive index in data set [3] (x1 = 1) is given as 1.4956 ± 0.0004.
With `COc1ccccc1` [anisole], the refractive index in data set [1] came out at 1.517 ± 0.0004. In addition, the “vapor or sublimation pressure” value in data set [2] (423.38 K) is on record as 93.13 ± 0.96 kPa.
With `COc1ccccc1` [anisole] + CCc1ccccc1, the refractive index is recorded as 1.517 ± 0.0004 in data set [3] (x2 = 0); 1.5152 ± 0.0004 in data set [3] (x2 = 0.0762); 1.5136 ± 0.0004 in data set [3] (x2 = 0.1494); 1.513 ± 0.0004 in data set [3] (x2 = 0.1767); 1.5122 ± 0.0004 in data set [3] (x2 = 0.2118); 1.5115 ± 0.0004 in data set [3] (x2 = 0.2442). Also, the refractive index was determined as 1.511 ± 0.0004 in data set [3] (x2 = 0.2691); 1.5093 ± 0.0004 in data set [3] (x2 = 0.3432); 1.508 ± 0.0004 in data set [3] (x2 = 0.4041); 1.5077 ± 0.0004 in data set [3] (x2 = 0.412); 1.5066 ± 0.0004 in data set [3] (x2 = 0.4651); 1.5055 ± 0.0004 in data set [3] (x2 = 0.5183). Besides, the refractive index in data set [3] (x2 = 0.6208) was 1.5033 ± 0.0004; in data set [3] (x2 = 0.6885), 1.5019 ± 0.0004; in data set [3] (x2 = 0.7927), 1.4998 ± 0.0004; in data set [3] (x2 = 0.9056) it was 1.4975 ± 0.0004; in data set [3] (x2 = 0.9514), 1.4965 ± 0.0004.
On to `COc1ccccc1` [anisole] + Cc1ccc(C)cc1, for which the refractive index came to 1.517 ± 0.0004 in data set [3] (x2 = 0); 1.5157 ± 0.0004 in data set [3] (x2 = 0.0499); 1.5138 ± 0.0004 in data set [3] (x2 = 0.1387); 1.5131 ± 0.0004 in data set [3] (x2 = 0.1684); 1.5122 ± 0.0004 in data set [3] (x2 = 0.2124); 1.511 ± 0.0004 in data set [3] (x2 = 0.2656). Further, the refractive index in data set [3] (x2 = 0.3055) was 1.5101 ± 0.0004; in data set [3] (x2 = 0.4128), 1.5078 ± 0.0004; in data set [3] (x2 = 0.4494), 1.507 ± 0.0004; in data set [3] (x2 = 0.4497) it was 1.507 ± 0.0004; in data set [3] (x2 = 0.5122), 1.5057 ± 0.0004; in data set [3] (x2 = 0.5626) it was 1.5046 ± 0.0004. Moreover, the refractive index was found to be 1.5036 ± 0.0004 in data set [3] (x2 = 0.6095), 1.4995 ± 0.0004 in data set [3] (x2 = 0.8055), 1.4978 ± 0.0004 in data set [3] (x2 = 0.8904) and 1.4964 ± 0.0004 in data set [3] (x2 = 0.9613).
On to `COc1ccccc1` [anisole] + Cc1cccc(C)c1, for which the refractive index in data set [3] (x2 = 0) turned out to be 1.517 ± 0.0004; in data set [3] (x2 = 0.0756), 1.5154 ± 0.0004; in data set [3] (x2 = 0.1836), 1.5131 ± 0.0004; in data set [3] (x2 = 0.2143), 1.5125 ± 0.0004; in data set [3] (x2 = 0.2716), 1.5113 ± 0.0004; in data set [3] (x2 = 0.3152) it was 1.5104 ± 0.0004. The refractive index in data set [3] (x2 = 0.4196) came to 1.5082 ± 0.0004; in data set [3] (x2 = 0.4711), 1.5072 ± 0.0004; in data set [3] (x2 = 0.5086), 1.5064 ± 0.0004; in data set [3] (x2 = 0.6083), 1.5045 ± 0.0004; in data set [3] (x2 = 0.6746), 1.5031 ± 0.0004; in data set [3] (x2 = 0.7383) it was 1.5019 ± 0.0004. Moreover, the refractive index was 1.5002 ± 0.0004 in data set [3] (x2 = 0.8189), 1.4997 ± 0.0004 in data set [3] (x2 = 0.8552) and 1.4982 ± 0.0004 in data set [3] (x2 = 0.9339).
For `COc1ccccc1` [anisole] + Cc1ccccc1C, the refractive index in data set [3] (x2 = 0) is recorded as 1.517 ± 0.0004; in data set [3] (x2 = 0.0825), 1.5159 ± 0.0004; in data set [3] (x2 = 0.1066), 1.5156 ± 0.0004; in data set [3] (x2 = 0.1439), 1.5151 ± 0.0004; in data set [3] (x2 = 0.1945), 1.5144 ± 0.0004; in data set [3] (x2 = 0.2976) it was 1.5131 ± 0.0004. Moreover, the refractive index in data set [3] (x2 = 0.3812) is reported as 1.512 ± 0.0004; in data set [3] (x2 = 0.4796), 1.5109 ± 0.0004; in data set [3] (x2 = 0.617), 1.5092 ± 0.0004; in data set [3] (x2 = 0.6785), 1.5084 ± 0.0004; in data set [3] (x2 = 0.7801), 1.5072 ± 0.0004; in data set [3] (x2 = 0.9159), 1.5057 ± 0.0004. Besides, in data set [3] (x2 = 0.9329), the refractive index amounted to 1.5056 ± 0.0004.
For `CCc1ccccc1` [ethylbenzene], the refractive index in data set [1] was 1.4955 ± 0.0004. In data set [2] (406.23 K), the “vapor or sublimation pressure” value came to 93.13 ± 0.96 kPa.
On to `CCc1ccccc1` [ethylbenzene] + COc1ccccc1, for which, in data set [3] (x1 = 1), the refractive index was found to be 1.4955 ± 0.0004.

Broadly, the refractive index is a measure of how strongly the sample bends light. One may read the vapor or sublimation pressure as the pressure of vapour in equilibrium with the condensed phase.
